Laboratory results reported in PMC9558053, “Development of a novel high-throughput screen for the identification of new inhibitors of protein S-acylation” (The Journal of Biological Chemistry, 2022).

Target: T1, human zDHHC3 (Homo sapiens, UniProt Q9NYG2)
T1 construct: expressed in transfected cells; host or cells: HEK293T
T1 sequence (Q9NYG2 1-299): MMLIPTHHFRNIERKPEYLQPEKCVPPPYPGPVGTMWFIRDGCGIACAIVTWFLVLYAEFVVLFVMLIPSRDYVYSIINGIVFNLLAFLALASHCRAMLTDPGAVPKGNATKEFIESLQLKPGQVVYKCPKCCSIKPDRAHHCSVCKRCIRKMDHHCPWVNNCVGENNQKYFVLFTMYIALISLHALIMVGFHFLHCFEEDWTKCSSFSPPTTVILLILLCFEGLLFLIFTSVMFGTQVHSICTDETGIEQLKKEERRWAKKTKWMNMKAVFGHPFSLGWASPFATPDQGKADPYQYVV
Assay: GFP-SNAP25b S-acylation in HEK293T cells co-expressing zDHHC3
Assay type: cell-based
Conditions: in cellulo HEK293T, compound 25 μM; for inhibition at 25 µM: HEK-293T, read-out: SNAP25 S-acylation inhibition (%), zDHHC3
Experimental: We next investigated whether the identified compounds were effective at inhibiting zDHHC enzyme isoforms other than zDHHC2 (Fig. 6 and Table 1). […] We therefore treated cells coexpressing GFP-SNAP25 and each of these zDHHC enzymes with 25 μM of TTZ-1 and TTZ-2 and studied the subsequent effect on SNAP25 S-acylation. […] Importantly, the level of enzyme expression was unaffected by the compounds. […] As any major differences in the expression levels of the different enzymes could in theory contribute to the apparent differential effects of TTZ-1 and TTZ-2, we directly compared the expression of zDHHC2, zDHHC3, zDHHC7, zDHHC15, and zDHHC17 when transfected in HEK293T cells together with GFP-SNAP25.
Figure 6 Activity of TTZ-1 and TTZ-2 against SNAP25 S-acylation by human zDHHC2, zDHHC3, zDHHC7, zDHHC15, and zDHHC17 expressed in mammalian cells.A–E, HEK293T cells were transfected with a plasmid encoding GFP-SNAP25b together with either a control plasmid pEF-BOS-HA (pEF) or a plasmid encoding either HA-tagged human zDHHC2 (zD2) (A), zDHHC3 (zD3) (B), zDHHC7 (zD7) (C), zDHHC15 (zD15) (D), or zDHHC17 (zD17) (E) for 24 h. Cells were then preincubated for 4 h with TTZ-1 or TTZ-2 (25 μM final) or DMSO control before metabolic labeling with 100 μM C16:0-azide for 4 h. Cells were lysed, and proteins having incorporated C16:0-azide were labeled by click chemistry with an alkyne-IR800 dye. Protein samples were then resolved by SDS-PAGE and transferred to nitrocellulose membranes that were first stained with an infrared-680 total protein stain. Membranes were then destained and probed with an anti-HA antibody (IR680), followed by an anti-GFP antibody (IR680). Representative images are shown, and panels are presented in the following order (from top to bottom): click chemistry signal (Click [IR800]), GFP and HA immunoblots (IR680), and Total Protein Stain (IR680). […] Three independent experiments were performed either in duplicate or in triplicate, and the quantification data were gathered on the graphs below each set of membranes. […]

| Compound | inhibition at 25 µM | SNAP25 S-acylation inhibition (%), zDHHC3 |
| --- | --- | --- |
| CCCCCCCOc1ccc(C(=O)Nc2cccc3c2OC(c2nnn[nH]2)CN3)cc1 (stereo not drawn) [TTZ-1, N-(2-(1H-Tetrazol-5-yl)-3,4-dihydro-2H-benzo[b][1,4]oxazin-8-yl)-4-(heptyloxy)benzamide] | 9 ± 4% | no significant effect |
| O=C(Nc1cccc2c1OC(c1nnn[nH]1)CN2)c1ccc(OCCCCc2ccccc2)cc1 (stereo not drawn) [TTZ-2, N-(2-(1H-Tetrazol-5-yl)-3,4-dihydro-2H-benzo[b][1,4]oxazin-8-yl)-4-(4-phenylbutoxy)benzamide] | 19 ± 3% | – |
